Laboratory results published in PubChem BioAssay AID179 (DTP/NCI, 2004).
Activity calls are given as the source filed them.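 Rule for the calls: active = compounds giving half or more protection of infected cells from virus-caused growth loss, again on retest; inactive = the rest.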

Tested on: CEM cells HIV-1 protection, formazan growth assay
Experiment: NCI AIDS Antiviral Assay
Details: for IC50: measured here: growth of uninfected CEM cells
Outline: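 Five concentrations of each compound were applied to infected and uninfected human CEM cells. Protection from HIV-1 was judged from growth measured with a soluble formazan assay.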

Compound: CCCN(C)C(=O)N(CC)S(=O)(=O)c1ccc(Cl)cc1
- outcome: inactive

Compound: CC1(C)C2CCC1C(SC(=N)N)C2 (stereo unspecified)
- EC50: > 200 µM
- IC50: 43.7 µM

Compound: COc1cc(C(=O)N2C[C@H](O)C[C@H]2C(=O)O)cc(OC)c1OC
- EC50: > 200 µM
- IC50: > 200 µM

Compound: CCCc1cc(=O)oc2c3c(c4c(c12)OC(C)(C)[C@@H](OC(=O)c1ccc(Br)cc1)[C@H]4OC(=O)c1ccc(Br)cc1)O[C@@H](C)[C@H](C)[C@@H]3OC(=O)c1ccc(Br)cc1
- EC50: > 200 µM
- IC50: > 200 µM

Compound: CC(C)CC(NC(=O)c1ccccc1SC(=O)CCCC[n+]1ccccc1)C(N)=O (stereo unspecified)
- EC50: 1.74 µM
- IC50: 4.07 µM

Compound: O=C(Nc1ccc(C2=NCCN2)cc1)c1ccc(C(=O)Nc2ccc(C3=NCCN3)cc2)c([N+](=O)[O-])c1
- EC50: > 200 µM
- IC50: 29.5 µM

Compound: CC(C)c1ccccc1NC(=O)C(=O)Cc1nc2ccccc2s1
- outcome: inactive

Compound: Oc1[nH]c2ccccc2c1N=Nc1nc(-c2ccccc2)cs1
- EC50: > 200 µM
- IC50: > 200 µM

Compound: COc1cc(/C=N/c2nncs2)ccc1O
- EC50: > 79.4 µM
- IC50: > 79.4 µM

Compound: O=c1c2ccccc2nc(-c2ccccc2)n1NC(=S)Nc1cccc(Cl)c1
- EC50: > 33.1 µM
- IC50: > 33.1 µM

Compound: COC(=O)CCC1CCc2c(OC)ccc(O)c2C1=O (stereo unspecified)
- outcome: inactive

Compound: O=C1CS(=O)(=O)C(c2ccccc2Cl)N1N1C(=O)CS(=O)(=O)C1c1ccccc1Cl (stereo unspecified)
- EC50: > 200 µM
- IC50: 46.8 µM

Compound: CC(=O)N[C@H]1CC2(C=C(Br)C(=O)C(Br)=C2)OC1=O
- EC50: > 33.1 µM
- IC50: 5.13 µM

Compound: O=C(O[C@H]1[C@@H]2C=CO[C@@H](OC3OC(CO)C(O)C(O)C3O)[C@@H]2[C@@]2(CO)O[C@@H]12)c1ccc(O)c(O)c1 (stereo partly specified)
- outcome: inactive

Compound: CC(=O)NNc1nc(C)c(C(=O)NNC(=O)C(=O)Nc2ccc([N+](=O)[O-])cc2C#N)s1
- EC50: > 407 µM
- IC50: 331 µM

Compound: O=[N+]([O-])c1ccc(N2N=C(c3ccc(NCc4nc5ccccc5[nH]4)cc3)CC2c2ccco2)cc1 (stereo unspecified)
- EC50: > 15.1 µM
- IC50: > 15.1 µM

Compound: O=c1oc2cc(O)ccc2c2oc3cc(O)ccc3c12
- EC50: > 0.513 µM
- IC50: 0.0162 µM

Compound: Cc1cccc2c1C(=O)C(C1OC(=O)c3ccccc31)C2 (stereo unspecified)
- EC50: > 100 µM
- IC50: > 100 µM

Compound: Cc1ccc(/C(O)=C/c2nc3ccccc3nc2NC23CC4CC(CC(C4)C2)C3)cc1
- EC50: > 200 µM
- IC50: > 200 µM

Compound: COc1cc(CNc2nc3ccccc3nc2C(=O)O)cc(OC)c1OC
- EC50: > 200 µM
- IC50: 74.1 µM

Compound: O=S1(=O)OCCOS(=O)(=O)C1I
- EC50: > 759 µM
- IC50: 132 µM

Compound: O=C1CCCc2[nH]c(=O)ccc21
- outcome: inactive

Compound: N=C(N)SCc1cccc2c(=O)cc(-c3ccccc3)oc12
- EC50: > 646 µM
- IC50: 5.62 µM

Compound: COc1ccc2c(CCNC(=O)/C=C/c3ccccc3)c(C(C)=O)[nH]c2c1[N+](=O)[O-]
- outcome: inactive

Compound: C/C(=C1/N=C(c2cc([N+](=O)[O-])ccc2Cl)N(c2ccc(Br)cc2)C1=O)c1cc2ccccc2oc1=O
- EC50: > 24 µM

Compound: Cc1ccc(S(=O)(=O)N2C[C@H](O)C[C@H]2C(=O)O)cc1
- outcome: inactive

Compound: O=C1NC2(CCCCC2)C(=O)N1CCN(CCCl)CCCl
- EC50: > 372 µM
- IC50: 269 µM

Compound: N/C(=N\N=C\c1ccccn1)NO
- EC50: > 200 µM
- IC50: 33.1 µM

Compound: C[C@@H]1OCN(C(=O)c2ccccc2SSc2ccccc2C(=O)N2CO[C@H](C)[C@H]2C(=O)O)[C@H]1C(=O)O
- EC50: > 200 µM
- IC50: > 200 µM

Compound: C=CCNC(=O)CN(CC(=O)O)C1CCCCC1N(CC(=O)O)CC(=O)O (stereo unspecified)
- EC50: > 200 µM
- IC50: > 200 µM

Compound: N#CCN(CC#N)C1CC=CCC1N(CC#N)CC#N (stereo unspecified)
- EC50: > 200 µM
- IC50: 102 µM

Compound: CC(c1ccccc1)N1C(=O)CSC1=S (stereo unspecified)
- outcome: inactive

Compound: C=C1CC2CCCC12C=O (stereo unspecified)
- EC50: > 263 µM
- IC50: 145 µM

Compound: C[S+](C)C1(c2ccccc2)C(=O)c2ccccc2C1=O
- EC50: > 575 µM
- IC50: > 575 µM

Compound: Cc1c2n(c(=O)[nH]c1=O)C1OC(CO)C(O2)C1O (stereo unspecified)
- EC50: > 200 µM
- IC50: > 200 µM

Compound: NCCN1C(=O)c2ccccc2C1(O)c1ccccc1 (stereo unspecified)
- EC50: > 200 µM
- IC50: > 200 µM

Compound: CNC(=O)C1CCCN1C(=O)C(Cc1cnc[nH]1)NC(=O)C1CCC(=O)N1 (stereo unspecified)
- EC50: > 200 µM
- IC50: > 200 µM

Compound: NCCCN(CCCCN(CCCN)CCCc1ccccc1)CCCc1ccccc1
- outcome: inactive

Compound: CSc1c(C(=O)Nc2ccc(C)cc2)c(N)[nH]c(=O)c1C#N
- EC50: > 95.5 µM
- IC50: 75.9 µM

Compound: COc1cc(C2c3cc4c(cc3OC(O)C2C)OCO4)cc(OC)c1O (stereo unspecified)
- EC50: > 200 µM
- IC50: 1.05 µM

Compound: CCCCC12C3CC4C5C(C)/C(=C6\OC(=O)C(C)=C6OC)OC5(O3)C1CCN42 (stereo unspecified)
- EC50: > 50.1 µM
- IC50: > 50.1 µM

Compound: CC(C)(CN1CCCCC1)C(=O)CC(SCCS(=O)(=O)O)c1ccccc1 (stereo unspecified)
- EC50: > 200 µM
- IC50: 3.31 µM

Compound: N#CCc1nc(-c2ccccc2)n[nH]1
- EC50: > 200 µM
- IC50: > 200 µM

Compound: CCN1CC2(COC)C(O)CC(OC)C34C5CC6(O)C(OC)C=C(C5C6OC(=O)c5ccc(OC)c(OC)c5)C(C(OC)C23)C14 (stereo unspecified)
- outcome: inactive

Compound: CC(C)C(NC(=O)OC(C)(C)C)C(=O)N1CC[C@@H](O)[C@H]1C(O)CC(=O)OC(C)(C)C (stereo partly specified)
- EC50: > 200 µM
- IC50: > 200 µM

Compound: O=C(O)CN1CCSc2ccccc2CN(CC(=O)O)CCSc2ccccc2C1
- EC50: > 562 µM
- IC50: > 562 µM
